Residues, ends and D or L forms follow the SMILES beside them.
What was measured:
red blood cells (RBC) = test: RBC swelling (enlarged pellet after centrifugation); conditions: 1 h; for RBC swelling in the presence of serum: peptides diluted in 10% human/donor serum; for RBC swelling: peptides diluted in PBS (absence of serum), up to 20 µM, pellet size after centrifugation
[1] = tested on: mouse cytomegalovirus (MCMV)/NIH/3T3 cells; conditions: 72 h
Baculovirus/HEK293 = conditions: 24 h

SMILES | RBC swelling in the presence of serum (red blood cells (RBC)) | RBC swelling (red blood cells (RBC)) | IC50 [1] [nM] | IC50 (Baculovirus/HEK293) [nM]
CC(C)C[C@H](NC(=O)[C@H](CS)NC(=O)[C@H](CCC(N)=O)NC(=O)[C@@H]1CCCN1C(=O)[C@@H]1CCCN1C(=O)[C@H](CCCNC(=N)N)NC(=O)[C@H](CCCNC(=N)N)NC(=O)[C@H](CCCNC(=N)N)NC(=O)[C@H](CCC(N)=O)NC(=O)[C@H](CCCNC(=N)N)NC(=O)[C@H](CCCNC(=N)N)NC(=O)[C@H](CCCCN)NC(=O)[C@H](CCCCN)NC(=O)[C@H](CCCNC(=N)N)NC(=O)CN)C(=O)N[C@@H](C)C(=O)N[C@@H](Cc1ccccc1)C(=O)N[C@@H](Cc1ccc(O)cc1)C(=O)N[C@@H](C)C(=O)N[C@@H](CS)C(=O)N[C@@H](Cc1ccccc1)C(=O)N[C@@H](CS)C(=O)O [TAT-I24] (H-GRKKRRQRRRPPQCLAFYACFC-OH) | not in the presence of donor serum | caused RBC swelling at higher concentrations | 809 | 16
CC[C@H](C)[C@H](NC(=O)[C@H](C)NC(=O)[C@H](CC(C)C)NC(=O)[C@H](CS)NC(=O)[C@H](CCC(N)=O)NC(=O)[C@@H]1CCCN1C(=O)[C@@H]1CCCN1C(=O)[C@H](CCCNC(=N)N)NC(=O)[C@H](CCCNC(=N)N)NC(=O)[C@H](CCCNC(=N)N)NC(=O)[C@H](CCC(N)=O)NC(=O)[C@H](CCCNC(=N)N)NC(=O)[C@H](CCCNC(=N)N)NC(=O)[C@H](CCCCN)NC(=O)[C@H](CCCCN)NC(=O)[C@H](CCCNC(=N)N)NC(=O)CN)C(=O)N[C@@H](Cc1ccc(O)cc1)C(=O)N[C@@H](CC(=O)O)C(=O)N[C@@H](CS)C(=O)N[C@@H](Cc1ccccc1)C(=O)N[C@@H](CS)C(=O)O [TAT-M13] (H-GRKKRRQRRRPPQCLAIYDCFC-OH) |  | caused RBC swelling at higher concentrations | 1220 | 31
CC(C)C[C@H](NC(=O)[C@H](CS)NC(=O)[C@H](C)NC(=O)[C@H](Cc1ccc(O)cc1)NC(=O)[C@H](Cc1ccccc1)NC(=O)[C@H](C)NC(=O)[C@H](CC(C)C)NC(=O)[C@H](CS)NC(=O)[C@@H]1CCCN1C(=O)[C@H](CCCNC(=N)N)NC(=O)[C@H](CCCNC(=N)N)NC(=O)[C@H](CCCNC(=N)N)NC(=O)[C@H](CCC(N)=O)NC(=O)[C@H](CCCNC(=N)N)NC(=O)[C@H](CCCNC(=N)N)NC(=O)[C@H](CCCCN)NC(=O)[C@H](CCCCN)NC(=O)[C@H](CCCNC(=N)N)NC(=O)CN)C(=O)N[C@@H](C)C(=O)N[C@@H](Cc1ccccc1)C(=O)N[C@@H](Cc1ccc(O)cc1)C(=O)N[C@@H](C)C(=O)N[C@@H](CS)C(=O)O [TAT-M212] (H-GRKKRRQRRRPCLAFYACLAFYAC-OH) |  | caused RBC swelling over a broad concentration range comparable to TAT-M214 | 18200 | 619
CC(C)C[C@H](NC(=O)[C@H](CS)NC(=O)[C@H](C)NC(=O)[C@H](Cc1ccc(O)cc1)NC(=O)[C@H](Cc1ccccc1)NC(=O)[C@H](C)NC(=O)[C@H](CC(C)C)NC(=O)[C@H](CCC(N)=O)NC(=O)[C@@H]1CCCN1C(=O)[C@@H]1CCCN1C(=O)[C@H](CCCNC(=N)N)NC(=O)[C@H](CCCNC(=N)N)NC(=O)[C@H](CCCNC(=N)N)NC(=O)[C@H](CCC(N)=O)NC(=O)[C@H](CCCNC(=N)N)NC(=O)[C@H](CCCNC(=N)N)NC(=O)[C@H](CCCCN)NC(=O)[C@H](CCCCN)NC(=O)[C@H](CCCNC(=N)N)NC(=O)CN)C(=O)N[C@@H](C)C(=O)N[C@@H](Cc1ccccc1)C(=O)O [TAT-M40] (H-GRKKRRQRRRPPQLAFYACLAF-OH) |  | caused RBC swelling at higher concentrations | 1850 | 21
CC(C)[C@H](NC(=O)[C@H](CO)NC(=O)[C@H](CCC(N)=O)NC(=O)[C@@H]1CCCN1C(=O)[C@@H]1CCCN1C(=O)[C@H](CCCNC(=N)N)NC(=O)[C@H](CCCNC(=N)N)NC(=O)[C@H](CCCNC(=N)N)NC(=O)[C@H](CCC(N)=O)NC(=O)[C@H](CCCNC(=N)N)NC(=O)[C@H](CCCNC(=N)N)NC(=O)[C@H](CCCCN)NC(=O)[C@H](CCCCN)NC(=O)[C@H](CCCNC(=N)N)NC(=O)CN)C(=O)N[C@@H](Cc1ccccc1)C(=O)N[C@@H](Cc1ccc(O)cc1)C(=O)N[C@@H](C)C(=O)N[C@@H](CS)C(=O)N[C@@H](Cc1ccccc1)C(=O)N[C@@H](C)C(=O)N[C@@H](CS)C(=O)O [TAT-De1] (H-GRKKRRQRRRPPQSVFYACFAC-OH) |  | less effect on RBC swelling | 1610 | 37
CC(C)C[C@H](NC(=O)[C@H](Cc1ccccc1)NC(=O)[C@H](CS)NC(=O)[C@H](Cc1ccccc1)NC(=O)[C@@H]1CCCN1C(=O)[C@H](CO)NC(=O)[C@H](CCC(N)=O)NC(=O)[C@@H]1CCCN1C(=O)[C@@H]1CCCN1C(=O)[C@H](CCCNC(=N)N)NC(=O)[C@H](CCCNC(=N)N)NC(=O)[C@H](CCCNC(=N)N)NC(=O)[C@H](CCC(N)=O)NC(=O)[C@H](CCCNC(=N)N)NC(=O)[C@H](CCCNC(=N)N)NC(=O)[C@H](CCCCN)NC(=O)[C@H](CCCCN)NC(=O)[C@H](CCCNC(=N)N)NC(=O)CN)C(=O)N[C@@H](C)C(=O)N[C@@H](Cc1ccccc1)C(=O)N[C@@H](CS)C(=O)N[C@@H](Cc1ccccc1)C(=O)O [TAT-T7] (H-GRKKRRQRRRPPQSPFCFLAFCF-OH; N-terminus and C-terminus assumed) | not in the presence of donor serum | caused RBC swelling at higher concentrations | 1130 | 17
CC(C)C[C@H](NC(=O)[C@H](CS)NC(=O)[C@H](CCC(N)=O)NC(=O)[C@@H]1CCCN1C(=O)[C@@H]1CCCN1C(=O)[C@H](CCCNC(=N)N)NC(=O)[C@H](CCCNC(=N)N)NC(=O)[C@H](CCCNC(=N)N)NC(=O)[C@H](CCC(N)=O)NC(=O)[C@H](CCCNC(=N)N)NC(=O)[C@H](CCCNC(=N)N)NC(=O)[C@H](CCCCN)NC(=O)[C@H](CCCCN)NC(=O)[C@H](CCCNC(=N)N)NC(=O)CN)C(=O)N[C@@H](C)C(=O)N[C@H](C(=O)N[C@@H](Cc1ccc(O)cc1)C(=O)N[C@@H](CC(=O)O)C(=O)N[C@@H](CS)C(=O)N[C@@H](Cc1ccccc1)C(=O)N[C@H](C(=O)O)C(C)C)C(C)C [TAT-M17] (H-GRKKRRQRRRPPQCLAVYDCFV-OH; N-terminus and C-terminus assumed) |  | did not cause RBC swelling in the absence of serum even at 20 µM | 5850 | 102
CC(C)C[C@H](NC(=O)[C@H](CO)NC(=O)[C@H](C)NC(=O)[C@H](Cc1ccc(O)cc1)NC(=O)[C@H](Cc1ccccc1)NC(=O)[C@H](C)NC(=O)[C@H](CC(C)C)NC(=O)[C@H](CCC(N)=O)NC(=O)[C@@H]1CCCN1C(=O)[C@@H]1CCCN1C(=O)[C@H](CCCNC(=N)N)NC(=O)[C@H](CCCNC(=N)N)NC(=O)[C@H](CCCNC(=N)N)NC(=O)[C@H](CCC(N)=O)NC(=O)[C@H](CCCNC(=N)N)NC(=O)[C@H](CCCNC(=N)N)NC(=O)[C@H](CCCCN)NC(=O)[C@H](CCCCN)NC(=O)[C@H](CCCNC(=N)N)NC(=O)CN)C(=O)N[C@@H](C)C(=O)N[C@@H](Cc1ccccc1)C(=O)O [TAT-M219] (H-GRKKRRQRRRPPQLAFYASLAF-OH) |  | did not cause RBC swelling in the absence of serum even at 20 µM | 7380 | 96
CC(C)C[C@H](NC(=O)[C@H](CS)NC(=O)[C@H](CCC(N)=O)NC(=O)[C@@H]1CCCN1C(=O)[C@@H]1CCCN1C(=O)[C@H](CCCNC(=N)N)NC(=O)[C@H](CCCNC(=N)N)NC(=O)[C@H](CCCNC(=N)N)NC(=O)[C@H](CCC(N)=O)NC(=O)[C@H](CCCNC(=N)N)NC(=O)[C@H](CCCNC(=N)N)NC(=O)[C@H](CCCCN)NC(=O)[C@H](CCCCN)NC(=O)[C@H](CCCNC(=N)N)NC(=O)CN)C(=O)N[C@@H](C)C(=O)N[C@H](C(=O)N[C@@H](Cc1c[nH]cn1)C(=O)N[C@@H](CC(=O)O)C(=O)N[C@@H](CS)C(=O)N[C@@H](Cc1ccccc1)C(=O)N[C@H](C(=O)O)C(C)C)C(C)C [TAT-M22] (H-GRKKRRQRRRPPQCLAVHDCFV-OH; N-terminus and C-terminus assumed) |  | did not cause RBC swelling in the absence of serum even at 20 µM | 11800 | 245
